Literature values, collected in patent publication US20160106679A1, “TABLET WITH INCREASED DRUG LOAD OF ODANACATIB” (SANDOZ AG, priority 2013, published 2016).
Read-outs that look alike come from different tables or passages of the source.

Key:
[1] = highly crystalline odanacatib

aqueous solubility [1]: low
SMILES: CC(C)(F)C[C@H](N[C@@H](c1ccc(-c2ccc(S(C)(=O)=O)cc2)cc1)C(F)(F)F)C(=O)NC1(C#N)CC1 [Odanacatib, odanacatib]
BMD change at lumbar spine, hip and femoral neck (patients; patients treated once weekly with 20-50 mg): increases in lumbar spine, hip and femoral neck BMD
BMD change at lumbar spine, hip and femoral neck (patients; patients treated with low doses): decreases in BMD at the same sites
